Source: patent US20140243418A1, “RASAGILINE FOR PARKINSON'S DISEASE MODIFICATION” (Teva Pharmaceutical Industries, Ltd., priority 2008, published 2014)
Values joined by “and” are separate entries in the source; they are usually repeats but may differ in a detail not shown here. Identical values can stand only once. Like-named read-outs stand apart in the source and are kept apart here.

System: Early Stage PD patients
Conditions: for 1 mg Early-Delayed Start Slope Difference, Estimate / 2 mg Early-Delayed Start Slope Difference, Estimate / 1 mg-Placebo Slope Difference, Estimate / 2 mg-Placebo Slope Difference, Estimate: Total UPDRS slopes; for 1 mg Early-Delayed Start Slope Difference, Estimate / 2 mg Early-Delayed Start Slope Difference, Estimate: Active Phase weeks 48-72, non-inferiority margin 0.15; for 1 mg Early-Delayed Start Slope Difference, Estimate / 1 mg-Placebo Slope Difference, Estimate / 1 mg-Placebo Week 36-12, Estimate / 1 mg Early-Delayed Start at week 72, Estimate: rasagiline 1 mg; for 2 mg Early-Delayed Start Slope Difference, Estimate / 2 mg-Placebo Slope Difference, Estimate / 2 mg-Placebo Week 36-12, Estimate / 2 mg Early-Delayed Start at week 72, Estimate: rasagiline 2 mg; for 1 mg-Placebo Slope Difference, Estimate / 2 mg-Placebo Slope Difference, Estimate: PC phase weeks 12-36, model that assumes linearity; for 1 mg-Placebo Week 36-12, Estimate / 2 mg-Placebo Week 36-12, Estimate: Total UPDRS, PC phase, alternative categorical model that compares week 36 to week 12; for outcome of the primary analysis (three hierarchal endpoints): both doses, post-hoc; for 1 mg Early-Delayed Start at week 72, Estimate / 2 mg Early-Delayed Start at week 72, Estimate: change from baseline in Total UPDRS, end of the Active Phase
Method: 1 mg/day rasagiline during Phase I and Phase II; • Group 2. 2 mg/day rasagiline during Phase I and Phase II; • Group 3. placebo during Phase I followed by 1 mg/day rasagiline during Phase II; and • Group 4. placebo during Phase I followed by 2 mg/day rasagiline during Phase II.
Thus, ‘early-start’ patients receive 72 weeks of treatment with rasagiline (1 or 2 mg once daily) and ‘delayed-start’ patients receive 36 weeks of placebo followed by 36 weeks of rasagiline (1 or 2 mg once daily). […] If subjects in either treatment group required additional anti-parkinsonian medication during the placebo-controlled stage of the trial, they could proceed directly to Phase II. Once in Phase II, no additional anti-PD therapy is permitted. If the patient requires additional medication in this stage they are discontinued from the study.
1 mg/day rasagiline during Phase I and Phase II (1 mg early start) • 2. 2 mg/day rasagiline during Phase I and Phase II (2 mg early start) • 3. placebo during Phase I followed by 1 mg/day rasagiline during Phase II (1 mg delayed start) • 4. placebo during Phase I followed by 2 mg/day rasagiline during Phase II (2 mg delayed start)
If, at any stage during the placebo-controlled phase the investigator determines that a subject needs additional anti-PD therapy, the subject will proceed to Phase II of the study. The investigator, aided by a questionnaire, will give careful consideration to the issue of a subject's need for additional anti-PD therapy. Scheduled in-clinic visits will be conducted at baseline and at weeks 4, 12, 24 and 36. Therefore, altogether there will be 5 scheduled visits during this phase. Unscheduled visits may be conducted at any time to assess a subject's need for additional anti-PD therapy, for safety reasons or for any other reason.
Thus, subjects who receive 1 mg rasagiline during Phase I will continue to receive 1 mg during Phase II, subjects who receive 2 mg rasagiline during Phase I will continue to receive 2 mg during Phase II, and subjects who receive placebo during Phase I will receive either 1 mg or 2 mg rasagiline during Phase II. The study blind will be maintained. No additional anti-PD therapy will be permitted during this phase. This applies to both the subjects who enter Phase II after completing the full 36-week duration of Phase I and to subjects who are switched from Phase I to Phase II because of a need of additional anti-PD therapy. If, the investigator determines that a subject needs additional anti-PD therapy during Phase II, the subject will be prematurely withdrawn from the study. The investigator, aided by a questionnaire, will give careful consideration to the issue of a subject's need for additional anti-PD therapy. Scheduled in-clinic visits will be conducted every 6 weeks. Therefore, altogether there will be 6 visits during this phase—at weeks 42, 48, 54, 60, 66 and 72. Unscheduled visits may be conducted at any time to assess a subject's need for additional anti-PD therapy, for safety reasons or for any other reason.

[1] = rasagiline 1 mg/day delayed-start, Baseline UPDRS > 25.5 (Upper Quartile)
[2] = rasagiline 1 mg/day delayed-start, Baseline UPDRS ≦ 25.5 (Lower 3 Quartiles)
[3] = rasagiline 1 mg/day delayed-start, all subjects
[4] = rasagiline 1 mg/day delayed-start, all subjects, listed as Rasagiline
[5] = rasagiline 1 mg/day early-start minus delayed-start, Baseline UPDRS > 25.5 (Upper Quartile)
[6] = rasagiline 1 mg/day early-start minus delayed-start, Baseline UPDRS ≦ 25.5 (Lower 3 Quartiles)
[7] = rasagiline 1 mg/day early-start, Baseline UPDRS > 25.5 (Upper Quartile)
[8] = rasagiline 1 mg/day early-start, Baseline UPDRS ≦ 25.5 (Lower 3 Quartiles)
[9] = rasagiline 1 mg/day early-start, all subjects
[10] = rasagiline 1 mg/day early-start, all subjects, listed as Rasagiline

SMILES: C#CCN[C@@H]1CCc2ccccc21 [rasagiline]
- Disease modifying effect (1 mg treatment, according to FDA requirements as predefined in the statistical analysis plan): demonstrated
- Disease modifying effect (2 mg treatment): not evident
- symptomatic effect observed in TEMPO (ADAGIO placebo controlled (PC) phase, rasagiline 1 mg and 2 mg versus placebo): replicated
- change in Total UPDRS score at week 72 (Early Stage PD patients, dose not stated): 2.8
- rate of progression of PD (Early Stage PD patients, improved from 0.139, dose not stated): 0.066 score (change in Total UPDRS)/week
- 1 mg Early-Delayed Start Slope Difference, Estimate (ACTE): 0.000
- 1 mg Early-Delayed Start Slope Difference, Estimate (CO): −0.011
- 1 mg Early-Delayed Start Slope Difference, Estimate (PP): −0.011
- 2 mg Early-Delayed Start Slope Difference, Estimate (ACTE): 0.029
- 2 mg Early-Delayed Start Slope Difference, Estimate (CO): 0.021
- 2 mg Early-Delayed Start Slope Difference, Estimate (PP): 0.022
- 1 mg-Placebo Slope Difference, Estimate (CO data analysis set): −0.033
- 1 mg-Placebo Slope Difference, Estimate (ITT data analysis set): −0.046
- 1 mg-Placebo Slope Difference, Estimate (PP data analysis set): −0.037
- 2 mg-Placebo Slope Difference, Estimate (CO data analysis set): −0.061
- 2 mg-Placebo Slope Difference, Estimate (ITT data analysis set): −0.072
- 2 mg-Placebo Slope Difference, Estimate (PP data analysis set): −0.065
- 1 mg-Placebo Week 36-12, Estimate (CO): −0.799
- 1 mg-Placebo Week 36-12, Estimate (ITT): −1.043
- 1 mg-Placebo Week 36-12, Estimate (PP): −0.873
- 2 mg-Placebo Week 36-12, Estimate (CO): −1.463
- 2 mg-Placebo Week 36-12, Estimate (ITT): −1.668
- 2 mg-Placebo Week 36-12, Estimate (PP): −1.553
- difference in change in Total UPDRS score vs delayed treatment, maintained (between Week 48 and Week 72, dose not stated): 1.7 score
- outcome of the primary analysis (three hierarchal endpoints) (lower three quartiles of baseline UPDRS scores (≦25.5)): neither dose met all of the primary endpoints
- outcome of the primary analysis (three hierarchal endpoints) (upper quartile of baseline total UPDRS (>25.5)): met all 3 primary endpoints
- 1 mg Early-Delayed Start at week 72, Estimate (ACTE data analysis set): −1.680
- 1 mg Early-Delayed Start at week 72, Estimate (CO data analysis set): −1.592
- 1 mg Early-Delayed Start at week 72, Estimate (PP data analysis set): −1.594
- 2 mg Early-Delayed Start at week 72, Estimate (ACTE data analysis set): 0.356
- 2 mg Early-Delayed Start at week 72, Estimate (CO data analysis set): −0.088
- 2 mg Early-Delayed Start at week 72, Estimate (PP data analysis set): −0.024
- reduction in Total UPDRS score at week 72 (corresponding to change of 2.8 at week 72): 62.2%
- duration for which benefits of early treatment are sustained (early treatment vs later initiation): at least 18 months
- Primary 2: estimated change in total UPDRS from baseline to week 72 [1]: 5.41
- Primary 3: rate of change in UPDRS, weeks 48-72 [1]: 0.095 UPDRS units/wk
- Primary 2: estimated change in total UPDRS from baseline to week 72 [2]: 4.03
- Primary 3: rate if change in UPDRS, weeks 48-72 [2]: 0.08 UPDRS units/wk
- Primary 2: estimated change in total UPDRS from baseline to week 72 [3]: 4.50
- Primary 3: rate of change in UPDRS, weeks 48-72 [3]: 0.085 UPDRS units/wk
- Primary 2: estimated change in total UPDRS from baseline to week 72 [4]: 4.52±0.56
- Primary 3: rate of change in UPDRS, weeks 48-72 [4]: 0.085±0.02 UPDRS units/wk
- Primary 2: estimated change in total UPDRS from baseline to week 72, early-start-delayed-start [5]: −3.40±1.66 and −3.40
- Primary 3: rate of change in UPDRS, weeks 48-72, early-start-delayed-start [5]: −0.02 UPDRS units/wk
- Primary 2: estimated change in total UPDRS from baseline to week 72, early-start-delayed-start [6]: −1.08
- Primary 3: rate if change in UPDRS, weeks 48-72, early-start-delayed-start [6]: 0.004 UPDRS units/wk
- Primary 2: estimated change in total UPDRS from baseline to week 72, early-start-delayed-start (rasagiline 1 mg/day early-start minus delayed-start, all subjects): −1.68±0.75 and −1.68
- Primary 3: rate of change in UPDRS, weeks 48-72, early-start-delayed-start (rasagiline 1 mg/day early-start minus delayed-start, all subjects, non-inferiority margin 0.15): 0.00 UPDRS units/wk
- Primary 2: estimated change in total UPDRS from baseline to week 72 [7]: 2.01
- Primary 3: rate of change in UPDRS, weeks 48-72 [7]: 0.075 UPDRS units/wk
- Primary 2: estimated change in total UPDRS from baseline to week 72 [8]: 2.94
- Primary 3: rate if change in UPDRS, weeks 48-72 [8]: 0.09 UPDRS units/wk
- Primary 2: estimated change in total UPDRS from baseline to week 72 [9]: 2.82
- Primary 3: rate of change in UPDRS, weeks 48-72 [9]: 0.085 UPDRS units/wk
- Primary 2: estimated change in total UPDRS from baseline to week 72 [10]: 2.82±0.53
- Primary 3: rate of change in UPDRS, weeks 48-72 [10]: 0.085±0.02 UPDRS units/wk
